From patent publication EP4737454A1, “GLP-1 RECEPTOR AGONIST, AND PREPARATION METHOD THEREFOR AND USE THEREOF” (Wayne Biotechnology Co., Ltd., priority 2023, dated 2025) come the findings set out here.

Each structure is given as a SMILES string.

Chain of Human GLP-1R (P43220 24-463): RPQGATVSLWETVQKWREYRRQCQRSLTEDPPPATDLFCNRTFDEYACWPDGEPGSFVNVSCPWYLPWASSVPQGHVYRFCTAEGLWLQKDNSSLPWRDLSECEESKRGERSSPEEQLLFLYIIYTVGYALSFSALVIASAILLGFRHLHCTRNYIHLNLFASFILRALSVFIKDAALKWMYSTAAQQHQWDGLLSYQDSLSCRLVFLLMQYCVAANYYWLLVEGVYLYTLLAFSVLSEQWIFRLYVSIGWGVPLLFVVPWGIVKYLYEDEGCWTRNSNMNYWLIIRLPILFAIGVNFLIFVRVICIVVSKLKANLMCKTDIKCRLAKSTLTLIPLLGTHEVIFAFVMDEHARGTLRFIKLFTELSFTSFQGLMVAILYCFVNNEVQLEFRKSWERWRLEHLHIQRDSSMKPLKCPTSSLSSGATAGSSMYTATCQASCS

The assay has as its target Human GLP-1R (Homo sapiens, UniProt P43220). Nature of the assay: cAMP level determination in human GLP-1R stably transfected HEK293T cells (HTRF cAMP kit). The format is cell-based. To be noted: 37°C 30 min. Here is the method: Human GLP-1R HEK293T stably transfected cells were digested with trypsin, terminated with DMEM total (without p/s), centrifuged and washed twice with 1X Stimulation buffer, then resuspended in 1X stimulation buffer and counted. The cells were then prepared as a 1 Million/mL cell suspension in stimulation buffer. Compound powder was first prepared as a 10 mM stock solution in DMSO, then diluted to 2 mM with DMSO, and further prepared as 2X compound in 1X stimulation buffer (Cisbio kit buffer with freshly added IBMX at a final concentration of 0.5 mM). The top dose final concentration was 2000 nM, with a final DMSO concentration of 0.2%, diluted in a 1:3 gradient for 11 gradients.
According to the layout, 5 µl of compound was added to each well; Min wells contained 100 nM GLP-1, and Max wells contained 0.2% DMSO in 1X stimulation buffer. 5 µl of cell suspension was added to each well, centrifuged at 300 rpm at room temperature for 1 min, then incubated at 37°C for 30 min. 2X cAMP standards were prepared in 1X Stimulation buffer, with a top final concentration of 2.8 µM, diluted in a 1:3 gradient for 12 doses. According to the layout, 10 µl was added to each well. Finally, d2 and antibody were diluted 20-fold in 1X Detection buffer (Cisbio kit buffer), and 5 µl of each was added to each well according to the layout. After centrifugation at 300 rpm at room temperature for 1 min, the plate was incubated at room temperature for 2 hr.
Stimulation% was calculated based on Min and Max readings (665nm/615nm ratio) using the formula: 100*(ratio Max well - ratio test well)/(ratio Max well - ratio Min well). The cAMP concentration in each test well was derived from the cAMP standard curve, and the data was analyzed using GraphPad Prism 9 to plot four-parameter fit curves and calculate EC50 values using the formula: Y=Bottom + (Top-Bottom)/(1+10^((LogEC50-X)*HillSlope)). Table 1: cAMP Level Determination in Human GLP-1R Stably Transfected HEK293T Cells
The compound `Cc1cc(-n2nc3c(c2-n2ccn(-c4ccc(C#N)c(C(F)(F)F)c4)c2=O)[C@H](C)N(C(=O)c2cc4cc(C5CCOC(C)(C)C5)ccc4n2[C@@]2(c4nc(=O)o[nH]4)C[C@@H]2C)CC3)cc(C)c1F` (some centres unmarked) [Compound 86] registered an EC50 of 13.8 nM.

Compound `Cc1cc(-n2nc3c(c2-n2ccn(-c4ccc(C(=O)N(C)C5(C)CC5)c(C(F)(F)F)c4)c2=O)[C@H](C)N(C(=O)c2cc4cc([C@H]5CCOC(C)(C)C5)ccc4n2[C@@]2(c4nc(=O)o[nH]4)C[C@@H]2C)CC3)cc(C)c1F` [Compound 15] showed an EC50 of 7.27 nM.

For the compound `Cc1cc(-n2nc3c(c2-n2ccn(-c4ccc(C(=O)N5CCCC5)cc4)c2=O)[C@H](C)N(C(=O)c2cc4cc(C5CCOC(C)(C)C5)ccc4n2[C@@]2(c4nc(=O)o[nH]4)C[C@@H]2C)CC3)cc(C)c1F` (some centres unmarked) [Compound 22], the midpoint of the response, the EC50, lay at 50.7 nM.

`Cc1cc(-n2nc3c(c2-n2ccn(-c4ccc(C(=O)N(C)C5CC5)c(C#N)c4)c2=O)[C@H](C)N(C(=O)c2cc4cc([C@H]5CCOC(C)(C)C5)ccc4n2[C@@]2(c4nc(=O)o[nH]4)C[C@@H]2C)CC3)cc(C)c1F` [Compound 9] gave an EC50 of 4.85 nM.

Consider `Cc1cc(-n2nc3c(c2-n2ccn(-c4ccc5c(c4)C=CS5(=O)=O)c2=O)[C@H](C)N(C(=O)c2cc4cc(C5CCOC(C)(C)C5)ccc4n2[C@@]2(c4noc(=O)[nH]4)C[C@@H]2C)CC3)cc(C)c1F` (some centres unmarked) [Compound 62], for which the 50% effective concentration (EC50) turned out to be 13.5 nM.

`Cc1cc(-n2nc3c(c2-n2ccn(-c4cc(F)cc(C#N)c4)c2=O)[C@H](C)N(C(=O)c2cc4cc(C5CCOC(C)(C)C5)ccc4n2[C@@]2(c4nc(=O)o[nH]4)C[C@@H]2C)CC3)cc(C)c1F` (some centres unmarked) [Compound 92]: a half-maximal effect (EC50) was put at 43.5 nM.

Turning to `Cc1cc(C#N)ccc1-n1ccn(-c2c3c(nn2-c2cc(C)c(F)c(C)c2)CCN(C(=O)c2cc4cc(C5CCOC(C)(C)C5)ccc4n2[C@@]2(c4nc(=O)o[nH]4)C[C@@H]2C)[C@H]3C)c1=O` (some centres unmarked) [Compound 88], the EC50 was found to be 205 nM.

`Cc1cc(-n2nc3c(c2-n2ccn(-c4ccc(C(=O)N5CCC5)c(F)c4)c2=O)[C@H](C)N(C(=O)c2cc4cc(C5CCOC(C)(C)C5)ccc4n2[C@@]2(c4nc(=O)o[nH]4)C[C@@H]2C)CC3)cc(C)c1F` (some centres unmarked) [Compound 53] gave a half-maximal effective concentration (EC50) of 25.5 nM.

As for `Cc1cc(-n2nc3c(c2-n2ccn(-c4ccc(N(C)C(=O)C5CC5)cc4Cl)c2=O)[C@H](C)N(C(=O)c2cc4cc([C@H]5CCOC(C)(C)C5)ccc4n2[C@@]2(c4nc(=O)o[nH]4)C[C@@H]2C)CC3)cc(C)c1F` [Compound 77], the EC50 stood at 6.19 nM.

For `Cc1cc(-n2nc3c(c2-n2ccn(-c4cccc(C(=O)N(C)C5CC5)c4)c2=O)[C@H](C)N(C(=O)c2cc4cc(C5CCOC(C)(C)C5)ccc4n2[C@@]2(c4nc(=O)o[nH]4)C[C@@H]2C)CC3)cc(C)c1F` (some centres unmarked) [Compound 45], the 50% effective concentration (EC50) came to 41 nM.

Compound `Cc1cc(-n2nc3c(c2-n2ccn(-c4ccc(C(=O)N(C)C5CCC5)cc4)c2=O)[C@H](C)N(C(=O)c2cc4cc(C5CCOC(C)(C)C5)ccc4n2[C@@]2(c4nc(=O)o[nH]4)C[C@@H]2C)CC3)cc(C)c1F` (some centres unmarked) [Compound 21] returned a 50% effective concentration (EC50) of 14.4 nM.

For the compound `Cc1cc(-n2nc3c(c2-n2ccn(-c4ccc(N(C)C5CC5)c(OC(F)(F)F)c4)c2=O)[C@H](C)N(C(=O)c2cc4cc(C5CCOC(C)(C)C5)ccc4n2[C@@]2(c4noc(=O)[nH]4)C[C@@H]2C)CC3)cc(C)c1F` (some centres unmarked) [Compound 66], it took 67.8 nM to reach a half-maximal effect (EC50).

Turning to `Cc1cc(-n2nc3c(c2-n2ccn(-c4ccc(N(C)C(=O)C5CC5)cc4F)c2=O)[C@H](C)N(C(=O)c2cc4cc([C@H]5CCOC(C)(C)C5)ccc4n2[C@@]2(c4nc(=O)o[nH]4)C[C@@H]2C)CC3)cc(C)c1F` [Compound 76], the EC50 turned out to be 8.18 nM.

On to `Cc1cc(-n2nc3c(c2-n2ccn(-c4ccc(N(C)C(=O)C5CC5)c(F)c4)c2=O)[C@H](C)N(C(=O)c2cc4cc([C@H]5CCOC(C)(C)C5)ccc4n2[C@@]2(c4noc(=O)[nH]4)C[C@@H]2C)CC3)cc(C)c1F` [Compound 63b], for which it took 6.4 nM to reach a half-maximal effect (EC50).
